Results reported in ChEMBL document CHEMBL1126980, “New, potent anthelmintic and acaricidal agents: 4-deoxy-4-thio-substituted avermectin derivatives” (Bioorg Med Chem Lett, 1993).
Values after ≈ are worked out from the molar mass of the structure shown.

Key:
[1] = tested on: Ovis aries; experiment: Tested for the anthelmintic efficacy against Cooperia curticei at 0.1 mg/kg; range is 51-75%; format: functional
[2] = tested on: Ovis aries; experiment: Tested for the anthelmintic efficacy against Trichostrongylus axei at 0.1 mg/kg; range is 91-100%; format: functional
[3] = tested on: Ovis aries; experiment: Tested for the anthelmintic efficacy against Oesphagostomum columbianum at 0.1 mg/kg; range is 91-100%; format: functional
[4] = tested on: Caenorhabditis elegans; experiment: Tested in vitro for the biological efficacy using Caenorhabditis elegans binding assay; format: functional, organism-based
[5] = tested on: Trichostrongylus colubriformis; experiment: Tested in vivo for the biological efficacy using Trichostrongylus colubriformis gerbil assay; format: functional
[6] = tested on: Tetranychus urticae; experiment: Tested for acaricidal efficacy using a Tetranychus urticae (two-spotted spider mite, TSSM) contact assay; format: functional; design: concentration or dose not given beside the values
[7] = tested on: Ovis aries; experiment: Tested for anthelmintic efficacy against Haemonchus contortus at 0.1 mg/kg; range is 91-100%; format: functional
[8] = tested on: Ovis aries; experiment: Tested for the anthelmintic efficacy against Ostertagia circumcincta at 0.1 mg/kg; range is 91-100%; format: functional
[9] = tested on: Ovis aries; experiment: Tested for the anthelmintic efficacy against Trichostrongylus colubriformis at 0.1 mg/kg; range is 76-90%; format: functional
[10] = tested on: Artemia salina; experiment: Tested in vitro for the biological efficacy using Artemia salina (brine shrimp) immobilization assay; format: functional
[11] = tested on: Ovis aries; experiment: Tested for the anthelmintic efficacy against Trichostrongylus axei at 0.1 mg/kg; range is 76-90%; format: functional
[12] = tested on: Ovis aries; experiment: Tested for the anthelmintic efficacy against Trichostrongylus colubriformis at 0.1 mg/kg; range is 91-100%; format: functional
[13] = tested on: Ovis aries; experiment: Tested for the anthelmintic efficacy against Cooperia curticei at 0.1 mg/kg; format: functional
[14] = tested on: Ovis aries; experiment: Tested for the anthelmintic efficacy against Cooperia curticei at 0.1 mg/kg; range is 91-100%; format: functional
[15] = tested on: Ovis aries; experiment: Tested for the anthelmintic efficacy against Ostertagia circumcincta at 0.1 mg/kg; range is 76-90%; format: functional
[16] = tested on: Ovis aries; experiment: Tested for the anthelmintic efficacy against Trichostrongylus colubriformis at 0.1 mg/kg; range is 51-75%; format: functional
[17] = tested on: Ovis aries; experiment: Tested for the anthelmintic efficacy against Trichostrongylus axei at 0.1 mg/kg; range is 51-75%; format: functional
[18] = tested on: Ovis aries; experiment: Tested for the anthelmintic efficacy against Ostertagia circumcincta at 0.1 mg/kg; format: functional
[19] = tested on: Ovis aries; experiment: Tested for the anthelmintic efficacy against Cooperia curticei at 0.1 mg/kg; range is 76-90%; format: functional
[20] = tested on: Ovis aries; experiment: Tested for the anthelmintic efficacy against Ostertagia circumcincta at 0.1 mg/kg; range is 51-75%; format: functional
[21] = tested on: Ovis aries; experiment: Tested for the anthelmintic efficacy against Ostertagia circumcincta at 0.15 mg/kg; range is 76-90%; format: functional
[22] = tested on: Ovis aries; experiment: Tested for the anthelmintic efficacy against Cooperia curticei at 0.15 mg/kg; range is 91-100%; format: functional
[23] = tested on: Ovis aries; experiment: Tested for the anthelmintic efficacy against Trichostrongylus colubriformis at 0.15 mg/kg; range is 91-100%; format: functional
[24] = tested on: Ovis aries; experiment: Tested for the anthelmintic efficacy against Trichostrongylus axei at 0.15 mg/kg; range is 91-100%; format: functional
[25] = tested on: Ovis aries; experiment: Tested for anthelmintic efficacy against Haemonchus contortus at 0.15 mg/kg; range is 76-90%; format: functional
[26] = tested on: Ovis aries; experiment: Tested for the anthelmintic efficacy against Oesphagostomum columbianum at 0.15 mg/kg; format: functional

Row | Compound | Reduction [2] | Reduction [3] | IC50 [4] | ED85 [5] | Mortality [6] | Reduction [7] | Reduction [8] | Reduction [9] | IC100 [10] | Reduction [12] | Reduction [13] | Reduction [14] | also measured
1 | CCC(C)[C@H]1O[C@]2(C=C[C@@H]1C)C[C@@H]1C[C@@H](C/C=C(\C)[C@@H](O[C@H]3C[C@H](OC)[C@@H](O[C@H]4C[C@H](OC)[C@H](S(=O)(=O)CCO)[C@H](C)O4)[C@H](C)O3)[C@@H](C)/C=C/C=C3\CO[C@@H]4[C@H](O)C(C)=C[C@@H](C(=O)O1)[C@]34O)O2 (some centres not stated) | 91% | 91% | 0.363 ng/mL (≈ 0.376 nM) | 0.063 mg/kg | 34% | 91% | 91% | 76% | 870 ng/mL | – | – | – | Reduction [1]: 51%
2 | CCC(C)[C@H]1O[C@]2(C=C[C@@H]1C)C[C@@H]1C[C@@H](C/C=C(\C)[C@@H](O[C@H]3C[C@H](OC)[C@@H](O[C@H]4C[C@H](OC)[C@H](SCCOC(C)=O)[C@H](C)O4)[C@H](C)O3)[C@@H](C)/C=C/C=C3\CO[C@@H]4[C@H](O)C(C)=C[C@@H](C(=O)O1)[C@]34O)O2 (some centres not stated) | – | 91% | 0.525 ng/mL (≈ 0.538 nM) | 0.125 mg/kg | 68% | 91% | 91% | – | 1730 ng/mL | 91% | <50% | – | Reduction [11]: 76%
3 | CCC(C)[C@H]1O[C@]2(C=C[C@@H]1C)C[C@@H]1C[C@@H](C/C=C(\C)[C@@H](O[C@H]3C[C@H](OC)[C@@H](O[C@H]4C[C@H](OC)[C@@H](S(C)(=O)=O)[C@H](C)O4)[C@H](C)O3)[C@@H](C)/C=C/C=C3\CO[C@@H]4[C@H](O)C(C)=C[C@@H](C(=O)O1)[C@]34O)O2 (some centres not stated) | 91% | 91% | 0.098 ng/mL (≈ 0.105 nM) | 0.125 mg/kg | 85% | 91% | – | – | 430 ng/mL | 91% | – | 91% | Reduction [15]: 76%
4 | CCC(C)[C@H]1O[C@]2(C=C[C@@H]1C)C[C@@H]1C[C@@H](C/C=C(\C)[C@@H](O[C@H]3C[C@H](OC)[C@H](SCCNC(C)=O)[C@H](C)O3)[C@@H](C)/C=C/C=C3\CO[C@@H]4[C@H](O)C(C)=C[C@@H](C(=O)O1)[C@]34O)O2 (some centres not stated) | 91% | 91% | – | 0.063 mg/kg | – | 91% | 91% | – | 430 ng/mL | 91% | <50% | – | –
5 | CCC(C)[C@H]1O[C@]2(C=C[C@@H]1C)C[C@@H]1C[C@@H](C/C=C(\C)[C@@H](O[C@H]3C[C@H](OC)[C@@H](O[C@H]4C[C@H](OC)[C@H](SCCNC(C)=O)[C@H](C)O4)[C@H](C)O3)[C@@H](C)/C=C/C=C3\CO[C@@H]4[C@H](O)C(C)=C[C@@H](C(=O)O1)[C@]34O)O2 (some centres not stated) | 91% | 91% | 0.127 ng/mL (≈ 0.13 nM) | 0.031 mg/kg | 29% | 91% | 91% | – | 870 ng/mL | – | – | 91% | Reduction [16]: 51%
6 | CCC(C)[C@H]1O[C@]2(C=C[C@@H]1C)C[C@@H]1C[C@@H](C/C=C(\C)[C@@H](O[C@H]3C[C@H](OC)[C@@H](O[C@H]4C[C@H](OC)[C@H](SCCO)[C@H](C)O4)[C@H](C)O3)[C@@H](C)/C=C/C=C3\CO[C@@H]4[C@H](O)C(C)=C[C@@H](C(=O)O1)[C@]34O)O2 (some centres not stated) | 91% | 91% | 0.784 ng/mL (≈ 0.84 nM) | 0.063 mg/kg | 55% | 91% | 91% | 76% | 650 ng/mL | – | <50% | – | –
7 | CCC(C)[C@H]1O[C@]2(C=C[C@@H]1C)C[C@@H]1C[C@@H](C/C=C(\C)[C@@H](O[C@H]3C[C@H](OC)[C@@H](O[C@H]4C[C@H](OC)[C@@H](SCCO)[C@H](C)O4)[C@H](C)O3)[C@@H](C)/C=C/C=C3\CO[C@@H]4[C@H](O)C(C)=C[C@@H](C(=O)O1)[C@]34O)O2 (some centres not stated) | – | 91% | 0.091 ng/mL (≈ 0.0975 nM) | 0.063 mg/kg | 70% | 91% | – | 76% | 870 ng/mL | – | <50% | – | Reduction [17]: 51%; Reduction [18]: <50%
8 | CCC(C)[C@H]1O[C@]2(C=C[C@@H]1C)C[C@@H]1C[C@@H](C/C=C(\C)[C@@H](O[C@H]3C[C@H](OC)[C@@H](O[C@H]4C[C@H](OC)[C@@H](SC)[C@H](C)O4)[C@H](C)O3)[C@@H](C)/C=C/C=C3\CO[C@@H]4[C@H](O)C(C)=C[C@@H](C(=O)O1)[C@]34O)O2 (some centres not stated) | – | 91% | 0.226 ng/mL (≈ 0.25 nM) | 0.25 mg/kg | 98% | 91% | – | – | 3470 ng/mL | – | – | – | Reduction [11]: 76%; Reduction [16]: 51%; Reduction [19]: 76%; Reduction [20]: 51%
9 | CCC(C)[C@H]1O[C@]2(C=C[C@@H]1C)C[C@@H]1C[C@@H](C/C=C(\C)[C@@H](O[C@H]3C[C@H](OC)[C@@H](O[C@H]4C[C@H](OC)[C@H](SC)[C@H](C)O4)[C@H](C)O3)[C@@H](C)/C=C/C=C3\CO[C@@H]4[C@H](O)C(C)=C[C@@H](C(=O)O1)[C@]34O)O2 (some centres not stated) | 91% | 91% | 0.06 ng/mL (≈ 0.0664 nM) | 0.063 mg/kg | 92% | 91% | – | 76% | 1730 ng/mL | – | – | 91% | Reduction [15]: 76%
10 | CCC(C)[C@H]1O[C@]2(C=C[C@@H]1C)C[C@@H]1C[C@@H](C/C=C(\C)[C@@H](O[C@H]3C[C@H](OC)[C@H](S(=O)(=O)CCO)[C@H](C)O3)[C@@H](C)/C=C/C=C3\CO[C@@H]4[C@H](O)C(C)=C[C@@H](C(=O)O1)[C@]34O)O2 (some centres not stated) | – | – | – | > 0.25 mg/kg | 94% | – | – | – | 870 ng/mL | – | – | – | Reduction [21]: 76%; Reduction [22]: 91%; Reduction [23]: 91%; Reduction [24]: 91%; Reduction [25]: 76%; Reduction [26]: <50%
